The source of these data is US20050165112A1, “Therapeutic agent for inflammatory intestinal diseases containing hydroxamic acid compound as active ingredient” (priority 2002, published 2005).

What all share (format): in vivo
Data set [1] has as its system acetic acid-induced colitis in male SD (CD) IGS rats. Briefly: Acetic acid-induced colitis model. To be noted: rat, 0.3 or 3 mg/kg/day, 24 hours after colitis induction. The protocol: Male SD (CD) IGS rats (7 weeks old) were anesthetized with sodium pentobarbital. Colitis was induced by intracolonic instillation of 0.25 mL of 5% acetic acid with a disposable sonde for oral administration for mouse, which is attached to 1 mL syringe (Terumo). The sonde was inserted to 5 cm from anus and acetic acid was infused for 10 seconds. After the removal of the sonde, the anus was plugged for 1 minute. Then the colon was washed with approximate 10 mL of physiological saline with a disposable sonde for oral administration for rat, which was attached to 50 mL syringe (Terumo), and the sonde was inserted to 8 cm from anus.
The test compound or vehicle was administered to animals before 30 minutes and after 8 hours of the colitis induction, at each time half of a dairy dose was administered.
After 24 hours of colitis induction, all colons which from anus to cecum, were removed, the content was washed away with saline solution. After trimming of the washed colon, the colon was cut at 9 cm from anus, wiped out the solution, and weighed with electronic measure. Then the injured area (mm^2) of dissected colon was measured by image analysis.
N-hydroxy-5-hydroxy-2 (S)-methyl-4(S)—(4-phenoxybenzoyl)aminopentanamide (compound (1)) was used as a test compound. Compound (1) was administered to animals at doses of 0.3 or 3 mg/kg/day. […]

In a further data set the test system is rat. Briefly: Single oral administration toxicity to rat. The protocol:
The toxicity of the compounds of the present invention is very low and therefore, the compounds may be considered safe for pharmaceutical use. For example, a minimum of lethal dose of the compound (2) by single oral administration to rat was 2000 mg/kg.

The test system of data set [2] is TNBS-induced colitis in male SD (CD) IGS rats. Briefly: TNBS-induced colitis model. The settings on record: rat, 1, 3 and 10 mg/kg/day, three days after TNBS induction. The protocol: Male SD (CD) IGS rats (7 weeks old) were anesthetized with sodium pentobarbital. A flexible sonde for oral administration was inserted to 8 cm from the anus. Colitis was induced by intracolonic instillation of 50 mg of 2,4,6-trinitrobenzenesulfonic acid (TNBS) dissolved in 0.25 mL of 20% ethanol, and the anus was plugged and leaved for 2 hours. Test compound was administered at 30 minutes before and 8 hours after the TNBS induction, since the next day of TNBS induction they were administered half of a dairy dose at each time, twice daily in the morning and the evening. Three days later the animals were sacrificed with bleeding under ether anesthetization. All colons were removed, the contents was washed out with saline solution, and then measured the length. After the trimming of the colons, 9 cm segment from the anus was obtained, the water was removed on the paper, and the wet weight was measured with electric scale.
N-hydroxy-5-ethoxymethyloxy-2 (S)-methyl-4(S)— (4-phenoxylbenzoil)aminopentanamide (compound (2)) was used as a test compound. FIG. 3 and FIG. 4 show the effects of compound (2) at the doses of 1, 3 and 10 mg/kg/day on the length and the wet weight of colons respectively.

In the case of `C[C@@H](C[C@@H](CO)NC(=O)c1ccc(Oc2ccccc2)cc1)C(=O)NO` [compound (1), N-hydroxy-5-hydroxy-2 (S)-methyl-4(S)—(4-phenoxybenzoyl)aminopentanamide], the injured area entry in data set [1] (FIG. 1) is “suppressive tendency to the injured area”. The “increase in intestine edema (wet weight of colon)” value in data set [1] (FIG. 2) was “suppressed the increase in intestine edema”.

Turning to `CCOCOC[C@H](C[C@H](C)C(=O)NO)NC(=O)c1ccc(Oc2ccccc2)cc1` [compound (2), N-hydroxy-5-ethoxymethyloxy-2 (S)-methyl-4(S)— (4-phenoxylbenzoil)aminopentanamide], the “minimum of lethal dose” value in the data set on rat amounted to 2000 mg/kg. For the same compound, the “shrinkage of colon (length of all colons)” value in data set [2] (FIG. 3) is “suppressed the shrinkage of colon”. The “increase in intestine edema (wet weight of colon)” value in data set [2] (FIG. 4) is “suppressed the shrinkage of colon and the increase in intestine edema”.
